The target of one test is T1, Human PPARα (Homo sapiens, UniProt Q07869).
T1 construct: host or cells: proprietary non-human mammalian cells
T1 sequence (Q07869 1-468): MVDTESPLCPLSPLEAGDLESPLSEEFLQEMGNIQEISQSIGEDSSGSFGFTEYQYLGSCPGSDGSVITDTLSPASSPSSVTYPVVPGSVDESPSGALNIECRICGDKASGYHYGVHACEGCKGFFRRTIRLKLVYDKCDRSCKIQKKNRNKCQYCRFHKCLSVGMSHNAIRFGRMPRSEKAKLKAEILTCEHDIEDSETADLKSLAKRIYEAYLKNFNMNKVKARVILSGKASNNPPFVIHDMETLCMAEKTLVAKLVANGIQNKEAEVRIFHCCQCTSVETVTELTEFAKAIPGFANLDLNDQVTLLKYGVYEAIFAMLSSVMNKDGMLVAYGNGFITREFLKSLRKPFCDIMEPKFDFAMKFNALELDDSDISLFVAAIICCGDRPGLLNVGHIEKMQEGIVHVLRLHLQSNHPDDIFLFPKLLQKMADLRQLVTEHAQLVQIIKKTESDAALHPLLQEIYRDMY
The test is described as follows: Human PPARα Reporter Assay (luciferase). It counts as cell-based. An outline of the steps: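 Agonist or antagonist activity read as luciferase light from engineered reporter cells carrying human PPARα and a responsive reporter gene. Cells got compound immediately on dispensing, incubated overnight, then treatment media swapped for luciferase detection reagent.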
For orientation: A reporter such as luciferase makes a cellular process visible.

A further test deals with T2, PPAR gamma (Homo sapiens, UniProt P37231).
T2 construct: host or cells: engineered reporter cells of the kit
T2 sequence (P37231 1-505): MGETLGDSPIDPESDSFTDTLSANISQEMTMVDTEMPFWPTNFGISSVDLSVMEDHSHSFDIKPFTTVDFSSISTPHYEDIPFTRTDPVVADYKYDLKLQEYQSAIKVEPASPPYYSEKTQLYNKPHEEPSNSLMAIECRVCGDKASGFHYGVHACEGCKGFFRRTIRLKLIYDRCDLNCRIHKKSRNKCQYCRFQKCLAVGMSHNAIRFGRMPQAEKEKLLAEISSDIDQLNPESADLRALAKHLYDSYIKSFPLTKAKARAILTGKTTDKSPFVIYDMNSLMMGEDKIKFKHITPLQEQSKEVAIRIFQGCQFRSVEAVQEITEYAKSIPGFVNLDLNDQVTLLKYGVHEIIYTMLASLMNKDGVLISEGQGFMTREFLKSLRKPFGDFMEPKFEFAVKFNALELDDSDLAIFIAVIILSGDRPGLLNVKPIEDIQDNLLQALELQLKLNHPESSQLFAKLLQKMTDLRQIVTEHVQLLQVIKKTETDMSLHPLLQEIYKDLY
Put plainly: Target selectivity counterscreen, PPAR γ reporter assay. It counts as cell-based. The note with it: receptor agonist at ~EC80. As for the experimental part:
(§1) Target Selectivity Assays
(§2) To determine species selectivity, a Mouse PPARα Reporter Assay System was used (Indigo Biosciences, Cat. #M00111). Activity of test compounds to antagonize or agonize other isoforms of human PPAR, for example β/δ and γ, were assessed using the corresponding kits from Indigo Biosciences (Cat. #IB00121 and #IB00101, respectively). In addition to PPAR activity, compounds were also screened for activity against other nuclear hormone receptors including Estrogen Receptor β, Glucocorticoid Receptor and Thyroid Receptor β using commercially available kits (Indigo Biosciences, Cat. #IB00411, IB00201 and IB01101, respectively). Each assay system from Indigo Biosciences uses technology analogous to the human PPARα kit, with the variance being that the cells used for each assay were engineered to over-express the receptor of interest. In addition, the appropriate receptor agonist (included with each kit) was used at ˜EC80 for assays in which antagonist potency was being assessed.
(Counterscreens check selectivity or assay interference.)

The target of a further test is T3, Glucocorticoid Receptor (Homo sapiens, UniProt P04150).
T3 construct: host or cells: engineered reporter cells of the kit
T3 sequence (P04150 1-777): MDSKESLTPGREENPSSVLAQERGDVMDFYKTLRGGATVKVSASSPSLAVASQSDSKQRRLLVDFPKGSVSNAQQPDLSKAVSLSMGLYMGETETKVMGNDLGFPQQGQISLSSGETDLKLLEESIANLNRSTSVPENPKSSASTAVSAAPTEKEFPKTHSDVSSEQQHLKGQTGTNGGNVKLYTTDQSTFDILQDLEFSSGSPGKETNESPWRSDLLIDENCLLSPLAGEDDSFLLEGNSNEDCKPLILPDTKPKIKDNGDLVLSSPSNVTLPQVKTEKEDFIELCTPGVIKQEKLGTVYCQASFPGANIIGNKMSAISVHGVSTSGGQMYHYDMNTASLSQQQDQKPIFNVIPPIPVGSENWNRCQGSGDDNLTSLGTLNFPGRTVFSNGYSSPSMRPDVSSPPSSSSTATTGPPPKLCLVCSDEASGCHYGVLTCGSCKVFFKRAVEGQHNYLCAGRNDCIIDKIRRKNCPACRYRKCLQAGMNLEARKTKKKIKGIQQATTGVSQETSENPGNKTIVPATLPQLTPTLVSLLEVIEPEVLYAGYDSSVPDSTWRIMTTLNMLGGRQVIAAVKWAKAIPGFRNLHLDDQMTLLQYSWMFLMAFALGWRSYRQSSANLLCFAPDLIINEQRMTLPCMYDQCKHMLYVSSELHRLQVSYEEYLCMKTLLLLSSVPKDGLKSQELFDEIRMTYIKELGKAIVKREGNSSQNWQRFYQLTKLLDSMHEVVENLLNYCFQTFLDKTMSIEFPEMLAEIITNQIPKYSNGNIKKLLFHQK
Put plainly: Target selectivity counterscreen, Glucocorticoid Receptor reporter assay. The settings on record: receptor agonist at ~EC80. The class given is cell-based. How it is done:
as §1, §2

A further test concerns the target T4, Estrogen Receptor β (Homo sapiens, UniProt Q92731).
T4 construct: host or cells: engineered reporter cells of the kit
Put plainly: Target selectivity counterscreen, Estrogen Receptor β reporter assay. The note with it: receptor agonist at ~EC80. The class given is cell-based. As for the experimental part:
as §1, §2

Another test deals with B16F10 melanoma cells. Put plainly: In vivo cancer model: B16F10 model of pulmonary metastasis. Details: species or system C57BL6 mice. The settings on record: intraperitoneal doses at 0.3, 3 and 30 mg/kg, daily, day 21, FIG. 1. How it is done:
In Vivo Cancer Model: B16F10 Model of Pulmonary Metastasis
B16F10 cells were cultured in standard growth media, harvested when approximately 50% confluent and injected into C57BL6 mice via the tail vein (50,000 cells per mouse in 200 μL). Mice were then treated daily with test compound. On day 21, mice were euthanized. Lungs were harvested and placed into Fekete's solution overnight to facilitate visualization of the tumors. Black nodules were enumerated.
Statistics were performed by ANOVA with Dunnett's Multiple Comparison Test post-hoc to determine statistical differences from vehicle treatment group (* denotes P<0.05 while *** denotes P<0.001).

Here are results for one molecule from US9505728B2, “Triazolone compounds and uses thereof” (INCEPTION 2, INC., priority 2012, dated 2016).

Where two headings read alike, the source gives them in different places.

T4 sequence (Q92731 whole entry): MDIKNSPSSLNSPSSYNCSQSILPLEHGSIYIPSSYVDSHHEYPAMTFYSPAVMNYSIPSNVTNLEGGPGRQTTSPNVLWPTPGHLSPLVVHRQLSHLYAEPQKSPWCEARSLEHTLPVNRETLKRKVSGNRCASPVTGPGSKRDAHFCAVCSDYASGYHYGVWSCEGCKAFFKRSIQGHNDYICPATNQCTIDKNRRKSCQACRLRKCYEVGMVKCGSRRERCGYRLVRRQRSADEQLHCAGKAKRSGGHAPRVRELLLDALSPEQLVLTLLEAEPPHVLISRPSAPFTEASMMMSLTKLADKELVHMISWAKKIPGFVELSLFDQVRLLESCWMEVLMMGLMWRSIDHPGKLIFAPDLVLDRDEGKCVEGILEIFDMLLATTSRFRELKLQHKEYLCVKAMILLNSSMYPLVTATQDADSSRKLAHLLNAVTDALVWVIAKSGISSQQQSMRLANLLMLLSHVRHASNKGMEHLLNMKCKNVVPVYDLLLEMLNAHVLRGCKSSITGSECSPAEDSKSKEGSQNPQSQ

One may read the IC50 as the midpoint of a concentration-inhibition curve. Take `CCn1c(CCCc2ccc(-c3ccc(NS(=O)(=O)c4ccccc4)cn3)cc2)nn(Cc2ccc(C(C)(C)C)cc2)c1=O` [Example 10, N-(6-(4-(3-(1-(4-(tert-Butyl)benzyl)-4-ethyl-5-oxo-4,5-dihydro-1H-1,2,4-triazol-3-yl)propyl)phenyl)pyridin-3-yl)benzenesulfonamide]: the IC50 at Human PPARα (counterscreen table, antagonist potency, read-out: PPAR alpha IC50) was 67 nM; on Human PPARα (human PPARα reporter cells, overnight incubation, antagonism, read-out: Luciferase IC50), 67 nM; at PPAR gamma it was 2900 nM; on Glucocorticoid Receptor, 36500 nM; at Estrogen Receptor β, 11400 nM. Moreover, in the test on B16F10 melanoma cells, the “metastasis of B16F10 melanoma cells to the lung (black nodules enumerated)” value is “inhibition of metastasis”.
